Assay results taken from patent US9981959B2, “Thiazolyl and oxazolyl urea, thiourea, guanidine and cyanoguanidine compounds as TrkA kinase inhibitors” (Array BioPharma Inc., priority 2012, dated 2018).

Experiments:
Assay in all cases: KinaseProfiler off-target kinase profiling
Type in all cases: biochemical
Settings in all cases: 10 μM, ATP near Km
TSSK1 = target: T1, TSSK1 (Homo sapiens, UniProt Q9BXA7)
T1 construct: purchased Millipore, Inc. (KinaseProfiler service)
Method: (§1) A representative compound of the invention (Example 2) was tested for off-target kinase activity at a concentration of 10 μM by Millipore, Inc. in their KinaseProfiler™ service against all the kinases available in their full kinase panel. The compound was run in duplicate at a concentration of ATP near the Km for each individual kinase according to Millipore's specifications. The results are shown in Table B. Data are reported as percent of control (POC) and are the average of the two replicates.

ALK = target: T2, ALK (Homo sapiens, UniProt Q9UM73)
T2 construct: purchased Millipore (KinaseProfiler service)
Method: as §1

Yes = target: T3, Yes (Homo sapiens, UniProt P07947)
T3 construct: purchased Millipore, Inc. (KinaseProfiler service)
Method: as §1

FGFR1 = target: T4, FGFR1 (Homo sapiens, UniProt P11362)
T4 construct: purchased Millipore, Inc. (KinaseProfiler service)
Method: as §1

KIT = target: T5, KIT (Homo sapiens, UniProt P10721)
T5 construct: purchased Millipore, Inc. (KinaseProfiler service)
Method: as §1

EphA8 = target: T6, EphA8 (Homo sapiens, UniProt P29322)
T6 construct: purchased Millipore, Inc. (KinaseProfiler service)
Method: as §1

SRPK2 = target: T7, SRPK2 (Homo sapiens, UniProt P78362)
T7 construct: purchased Millipore, Inc. (KinaseProfiler service)
Method: as §1

Txk = target: T8, Txk (Homo sapiens, UniProt P42681)
T8 construct: purchased Millipore, Inc. (KinaseProfiler service)
Method: as §1

AKT2 = target: T9, AKT2 (Homo sapiens, UniProt P31751)
T9 construct: purchased Millipore (KinaseProfiler service)
Method: as §1

IRAK1 = target: T10, IRAK1 (Homo sapiens, UniProt P51617)
T10 construct: purchased Millipore, Inc. (KinaseProfiler service)
Method: as §1

IGF-1R Activated = target: T11, IGF-1R Activated (Homo sapiens, UniProt P08069)
T11 construct: purchased Millipore, Inc. (KinaseProfiler service)
Method: as §1

PASK = target: T12, PASK (Homo sapiens, UniProt Q96RG2)
T12 construct: purchased Millipore, Inc. (KinaseProfiler service)
T12 sequence (Q96RG2 whole entry): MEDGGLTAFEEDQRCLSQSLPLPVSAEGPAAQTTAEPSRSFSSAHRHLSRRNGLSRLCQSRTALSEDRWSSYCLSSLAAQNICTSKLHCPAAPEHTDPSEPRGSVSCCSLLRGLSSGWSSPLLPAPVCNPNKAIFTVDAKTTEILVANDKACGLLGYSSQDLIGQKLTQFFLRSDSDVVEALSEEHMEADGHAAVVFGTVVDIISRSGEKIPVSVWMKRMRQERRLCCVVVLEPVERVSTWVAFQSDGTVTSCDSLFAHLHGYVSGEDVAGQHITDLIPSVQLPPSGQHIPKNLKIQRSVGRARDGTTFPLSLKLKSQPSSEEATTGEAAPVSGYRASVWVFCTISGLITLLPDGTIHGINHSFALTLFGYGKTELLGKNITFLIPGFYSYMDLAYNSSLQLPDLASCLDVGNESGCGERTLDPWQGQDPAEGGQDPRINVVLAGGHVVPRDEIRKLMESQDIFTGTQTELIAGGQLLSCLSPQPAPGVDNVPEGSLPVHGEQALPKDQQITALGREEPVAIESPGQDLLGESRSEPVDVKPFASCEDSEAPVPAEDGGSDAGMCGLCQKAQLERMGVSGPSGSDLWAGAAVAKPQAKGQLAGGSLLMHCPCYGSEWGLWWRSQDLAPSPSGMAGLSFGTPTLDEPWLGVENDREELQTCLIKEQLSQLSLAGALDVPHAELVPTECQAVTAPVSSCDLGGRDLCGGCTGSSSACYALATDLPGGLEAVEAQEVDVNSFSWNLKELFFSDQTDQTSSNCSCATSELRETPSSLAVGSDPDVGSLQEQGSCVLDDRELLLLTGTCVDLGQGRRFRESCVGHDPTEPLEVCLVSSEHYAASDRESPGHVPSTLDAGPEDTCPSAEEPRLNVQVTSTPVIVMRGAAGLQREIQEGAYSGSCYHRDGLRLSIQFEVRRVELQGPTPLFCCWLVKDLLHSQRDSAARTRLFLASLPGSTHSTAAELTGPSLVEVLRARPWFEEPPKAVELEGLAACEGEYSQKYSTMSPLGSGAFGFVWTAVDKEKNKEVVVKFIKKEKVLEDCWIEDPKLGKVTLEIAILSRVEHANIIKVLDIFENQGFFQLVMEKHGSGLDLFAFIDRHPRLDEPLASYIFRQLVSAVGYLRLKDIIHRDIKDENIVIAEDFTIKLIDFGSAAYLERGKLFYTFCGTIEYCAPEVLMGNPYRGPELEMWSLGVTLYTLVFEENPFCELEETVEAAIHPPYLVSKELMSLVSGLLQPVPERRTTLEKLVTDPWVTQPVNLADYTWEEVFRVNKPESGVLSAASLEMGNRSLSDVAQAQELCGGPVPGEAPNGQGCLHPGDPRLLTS
Method: as §1

CAMK2d = target: T13, CAMK2d (Homo sapiens, UniProt Q13557)
T13 construct: purchased Millipore (KinaseProfiler service)
Method: as §1

JAK2 = target: T14, JAK2 (Homo sapiens, UniProt O60674)
T14 construct: purchased Millipore, Inc. (KinaseProfiler service)
Method: as §1

BTK = target: T15, BTK (Homo sapiens, UniProt Q06187)
T15 construct: purchased Millipore (KinaseProfiler service)
Method: as §1

CDK5/p25 = target: T16, CDK5/p25 (Homo sapiens, UniProt Q00535)
T16 construct: purchased Millipore, Inc. (KinaseProfiler service)
Method: as §1

MRCKalpha = target: T17, MRCKalpha (Homo sapiens, UniProt Q5VT25)
T17 construct: purchased Millipore, Inc. (KinaseProfiler service)
Method: as §1

CHK1 = target: T18, CHK1 (Homo sapiens, UniProt O14757)
T18 construct: purchased Millipore, Inc. (KinaseProfiler service)
Method: as §1

Met = target: T19, Met (Homo sapiens, UniProt P08581)
T19 construct: purchased Millipore, Inc. (KinaseProfiler service)
Method: as §1

ROCK-I = target: T20, ROCK-I (Homo sapiens, UniProt Q13464)
T20 construct: purchased Millipore, Inc. (KinaseProfiler service)
T20 sequence (Q13464 whole entry): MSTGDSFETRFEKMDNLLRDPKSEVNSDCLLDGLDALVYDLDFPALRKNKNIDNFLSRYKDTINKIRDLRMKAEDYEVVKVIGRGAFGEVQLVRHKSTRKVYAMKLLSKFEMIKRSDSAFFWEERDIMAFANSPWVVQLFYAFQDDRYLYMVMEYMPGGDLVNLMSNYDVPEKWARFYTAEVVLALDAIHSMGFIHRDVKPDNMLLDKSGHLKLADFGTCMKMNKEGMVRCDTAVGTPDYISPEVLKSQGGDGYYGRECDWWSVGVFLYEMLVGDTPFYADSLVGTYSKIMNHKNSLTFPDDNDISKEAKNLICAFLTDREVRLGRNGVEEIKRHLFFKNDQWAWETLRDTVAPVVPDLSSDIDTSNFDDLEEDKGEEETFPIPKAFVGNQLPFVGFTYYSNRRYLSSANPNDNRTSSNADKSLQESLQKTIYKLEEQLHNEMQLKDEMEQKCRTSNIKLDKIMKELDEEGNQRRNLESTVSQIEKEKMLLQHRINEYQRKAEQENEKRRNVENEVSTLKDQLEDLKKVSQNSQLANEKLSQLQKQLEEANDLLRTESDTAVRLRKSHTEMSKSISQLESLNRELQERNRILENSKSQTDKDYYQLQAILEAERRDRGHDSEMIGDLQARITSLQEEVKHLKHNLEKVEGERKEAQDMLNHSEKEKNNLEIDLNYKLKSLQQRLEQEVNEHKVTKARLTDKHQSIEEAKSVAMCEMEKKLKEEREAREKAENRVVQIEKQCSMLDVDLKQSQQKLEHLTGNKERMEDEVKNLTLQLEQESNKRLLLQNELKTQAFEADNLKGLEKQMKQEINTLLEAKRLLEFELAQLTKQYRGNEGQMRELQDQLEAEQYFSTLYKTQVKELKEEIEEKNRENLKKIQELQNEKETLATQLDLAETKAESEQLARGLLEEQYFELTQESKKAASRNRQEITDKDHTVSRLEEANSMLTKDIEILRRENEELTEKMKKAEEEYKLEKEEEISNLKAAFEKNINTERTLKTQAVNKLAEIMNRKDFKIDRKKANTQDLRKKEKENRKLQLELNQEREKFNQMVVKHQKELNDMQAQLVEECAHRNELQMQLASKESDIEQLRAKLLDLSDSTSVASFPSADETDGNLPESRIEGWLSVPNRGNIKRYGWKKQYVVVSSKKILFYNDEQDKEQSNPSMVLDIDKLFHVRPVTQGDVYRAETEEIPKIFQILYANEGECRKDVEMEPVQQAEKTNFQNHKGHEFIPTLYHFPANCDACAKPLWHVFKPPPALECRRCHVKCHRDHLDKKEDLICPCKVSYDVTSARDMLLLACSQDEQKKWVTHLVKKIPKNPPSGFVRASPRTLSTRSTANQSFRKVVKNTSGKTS
Method: as §1

MST2 = target: T21, MST2 (Homo sapiens, UniProt Q13188)
T21 construct: purchased Millipore, Inc. (KinaseProfiler service)
Method: as §1

LIMK1 = target: T22, LIMK1 (Homo sapiens, UniProt P53667)
T22 construct: purchased Millipore, Inc. (KinaseProfiler service)
T22 sequence (P53667 whole entry): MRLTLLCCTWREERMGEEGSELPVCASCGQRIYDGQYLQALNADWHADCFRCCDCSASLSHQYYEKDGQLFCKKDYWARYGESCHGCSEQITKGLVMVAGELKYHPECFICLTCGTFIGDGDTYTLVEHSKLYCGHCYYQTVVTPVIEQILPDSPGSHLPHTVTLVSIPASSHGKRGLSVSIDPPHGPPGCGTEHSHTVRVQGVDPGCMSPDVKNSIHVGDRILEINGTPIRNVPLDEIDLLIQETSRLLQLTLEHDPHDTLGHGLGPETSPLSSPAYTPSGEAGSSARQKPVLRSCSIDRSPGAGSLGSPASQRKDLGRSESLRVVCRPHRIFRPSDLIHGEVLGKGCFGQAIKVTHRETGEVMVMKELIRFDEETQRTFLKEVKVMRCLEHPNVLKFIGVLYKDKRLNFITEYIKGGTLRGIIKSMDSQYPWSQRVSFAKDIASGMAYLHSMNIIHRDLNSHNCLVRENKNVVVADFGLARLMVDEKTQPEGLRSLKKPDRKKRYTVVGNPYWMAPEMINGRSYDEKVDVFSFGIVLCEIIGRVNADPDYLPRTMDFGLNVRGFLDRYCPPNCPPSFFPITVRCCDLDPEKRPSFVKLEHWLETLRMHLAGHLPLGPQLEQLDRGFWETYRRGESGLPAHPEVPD
Method: as §1

Syk = target: T23, Syk (Homo sapiens, UniProt P43405)
T23 construct: purchased Millipore, Inc. (KinaseProfiler service)
Method: as §1

ErbB4 = target: T24, ErbB4 (Homo sapiens, UniProt Q15303)
T24 construct: purchased Millipore, Inc. (KinaseProfiler service)
Method: as §1

IRR = target: T25, IRR (Homo sapiens, UniProt P14616)
T25 construct: purchased Millipore, Inc. (KinaseProfiler service)
Method: as §1

CDK7/cyclinH/MAT1 = target: T26, CDK7/cyclinH/MAT1 (Homo sapiens, UniProt P50613)
T26 construct: purchased Millipore, Inc. (KinaseProfiler service)
Method: as §1

CLK3 = target: T27, CLK3 (Homo sapiens, UniProt P49761)
T27 construct: purchased Millipore, Inc. (KinaseProfiler service)
Method: as §1

PRK2 = target: T28, PRK2 (Homo sapiens, UniProt Q16513)
T28 construct: purchased Millipore, Inc. (KinaseProfiler service)
T28 sequence (Q16513 whole entry): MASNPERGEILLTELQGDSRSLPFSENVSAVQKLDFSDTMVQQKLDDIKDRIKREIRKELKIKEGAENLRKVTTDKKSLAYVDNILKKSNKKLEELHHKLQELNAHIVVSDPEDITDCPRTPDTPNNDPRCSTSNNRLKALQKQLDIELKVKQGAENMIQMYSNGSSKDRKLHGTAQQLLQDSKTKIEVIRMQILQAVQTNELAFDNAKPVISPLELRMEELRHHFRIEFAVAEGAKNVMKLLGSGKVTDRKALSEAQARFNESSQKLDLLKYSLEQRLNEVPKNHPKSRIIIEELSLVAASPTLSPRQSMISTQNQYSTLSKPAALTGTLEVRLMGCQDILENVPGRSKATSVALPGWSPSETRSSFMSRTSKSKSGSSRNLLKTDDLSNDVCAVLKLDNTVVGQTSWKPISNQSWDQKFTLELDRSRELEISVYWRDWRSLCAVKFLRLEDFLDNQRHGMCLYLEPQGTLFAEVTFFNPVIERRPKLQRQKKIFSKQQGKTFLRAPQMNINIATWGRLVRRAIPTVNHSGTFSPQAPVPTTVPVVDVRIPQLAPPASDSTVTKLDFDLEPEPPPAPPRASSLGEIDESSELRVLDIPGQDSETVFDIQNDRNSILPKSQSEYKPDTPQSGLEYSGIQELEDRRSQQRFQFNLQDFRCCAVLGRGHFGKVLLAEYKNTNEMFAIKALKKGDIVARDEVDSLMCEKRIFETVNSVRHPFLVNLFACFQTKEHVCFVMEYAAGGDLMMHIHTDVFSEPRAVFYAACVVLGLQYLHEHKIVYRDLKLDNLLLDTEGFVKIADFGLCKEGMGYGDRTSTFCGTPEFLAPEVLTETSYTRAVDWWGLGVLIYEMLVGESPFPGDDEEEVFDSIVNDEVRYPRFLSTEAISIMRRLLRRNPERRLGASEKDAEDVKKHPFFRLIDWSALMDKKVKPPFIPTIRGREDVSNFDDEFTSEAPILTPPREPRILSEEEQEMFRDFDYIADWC
Method: as §1

LKB1 = target: T29, LKB1 (Homo sapiens, UniProt Q15831)
T29 construct: purchased Millipore, Inc. (KinaseProfiler service)
Method: as §1

SIK = target: T30, SIK (Homo sapiens, UniProt P57059)
T30 construct: purchased Millipore, Inc. (KinaseProfiler service)
Method: as §1

ZAP-70 = target: T31, ZAP-70 (Homo sapiens, UniProt P43403)
T31 construct: purchased Millipore, Inc. (KinaseProfiler service)
Method: as §1

PKCiota = target: T32, PKCiota (Homo sapiens, UniProt P41743)
T32 construct: purchased Millipore, Inc. (KinaseProfiler service)
Method: as §1

RIPK2 = target: T33, RIPK2 (Homo sapiens, UniProt O43353)
T33 construct: purchased Millipore, Inc. (KinaseProfiler service)
Method: as §1

EphA3 = target: T34, EphA3 (Homo sapiens, UniProt P29320)
T34 construct: purchased Millipore, Inc. (KinaseProfiler service)
Method: as §1

SGK1 = target: T35, SGK1 (Homo sapiens, UniProt O00141, S422D)
T35 construct: purchased Millipore, Inc. (KinaseProfiler service)
T35 sequence (O00141 60-431 S422D limits assumed): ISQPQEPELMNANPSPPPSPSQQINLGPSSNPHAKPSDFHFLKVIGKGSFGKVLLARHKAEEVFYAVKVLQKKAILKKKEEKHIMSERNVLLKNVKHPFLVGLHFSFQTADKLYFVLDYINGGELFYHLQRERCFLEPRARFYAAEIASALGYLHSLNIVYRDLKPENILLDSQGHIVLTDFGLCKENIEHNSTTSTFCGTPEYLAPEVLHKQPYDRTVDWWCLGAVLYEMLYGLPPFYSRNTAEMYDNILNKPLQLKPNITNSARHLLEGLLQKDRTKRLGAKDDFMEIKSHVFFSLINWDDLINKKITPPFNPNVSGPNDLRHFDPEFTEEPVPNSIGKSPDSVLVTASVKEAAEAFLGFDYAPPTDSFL
Method: as §1

PKCepsilon = target: T36, PKCepsilon (Homo sapiens, UniProt Q02156)
T36 construct: purchased Millipore, Inc. (KinaseProfiler service)
Method: as §1

PKCeta = target: T37, PKCeta (Homo sapiens, UniProt P24723)
T37 construct: purchased Millipore, Inc. (KinaseProfiler service)
Method: as §1

GRK6 = target: T38, GRK6 (Homo sapiens, UniProt P43250)
T38 construct: purchased Millipore, Inc. (KinaseProfiler service)
Method: as §1

IKKbeta = target: T39, IKKbeta (Homo sapiens, UniProt O14920)
T39 construct: purchased Millipore, Inc. (KinaseProfiler service)
Method: as §1

EphA4 = target: T40, EphA4 (Homo sapiens, UniProt P54764)
T40 construct: purchased Millipore, Inc. (KinaseProfiler service)
Method: as §1

BrSK1 = target: T41, BrSK1 (Homo sapiens, UniProt Q8TDC3)
T41 construct: purchased Millipore (KinaseProfiler service)
Method: as §1

T1 sequence (Q9BXA7 whole entry): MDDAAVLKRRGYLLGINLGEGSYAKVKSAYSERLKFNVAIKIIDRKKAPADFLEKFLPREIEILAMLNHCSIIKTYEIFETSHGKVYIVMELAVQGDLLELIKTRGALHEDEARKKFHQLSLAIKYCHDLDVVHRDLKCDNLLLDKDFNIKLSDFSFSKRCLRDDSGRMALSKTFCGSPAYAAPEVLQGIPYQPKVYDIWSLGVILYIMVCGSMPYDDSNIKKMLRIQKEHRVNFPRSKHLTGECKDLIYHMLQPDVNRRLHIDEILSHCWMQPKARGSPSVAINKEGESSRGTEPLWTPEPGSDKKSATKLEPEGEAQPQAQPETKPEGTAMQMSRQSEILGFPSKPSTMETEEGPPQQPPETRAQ

Cc1c(-c2cnn(C)c2)nn(-c2ccccc2)c1NC(=O)Nc1sc(C(F)(F)F)nc1-c1ccccc1 [Example 2, 1-(1′,4-dimethyl-1-phenyl-1H,1′H-[3,4′-bipyrazol]-5-yl)-3-(4-phenyl-2-(trifluoromethyl)thiazol-5-yl)urea]
Avg POC (TSSK1): 92 POC
Avg POC (ALK): 108 POC
Avg POC (Yes): 128.5 POC
Avg POC (FGFR1): 80.5 POC
Avg POC (KIT): 102.5 POC
Avg POC (EphA8): 118.5 POC
Avg POC (SRPK2): 113.5 POC
Avg POC (Txk): 163 POC
Avg POC (AKT2): 171.5 POC
Avg POC (IRAK1): 107.5 POC
Avg POC (IGF-1R Activated): 97.5 POC
Avg POC (PASK): 113 POC
Avg POC (CAMK2d): 118 POC
Avg POC (JAK2): 147.5 POC
Avg POC (BTK): 123 POC
Avg POC (CDK5/p25): 104.5 POC
Avg POC (MRCKalpha): 147.5 POC
Avg POC (CHK1): 126.5 POC
Avg POC (Met): 120 POC
Avg POC (ROCK-I): 113 POC
Avg POC (MST2): 109 POC
Avg POC (LIMK1): 102 POC
Avg POC (Syk): 127.5 POC
Avg POC (ErbB4): 125 POC
Avg POC (IRR): 109 POC
Avg POC (CDK7/cyclinH/MAT1): 113 POC
Avg POC (CLK3): 110.5 POC
Avg POC (PRK2): 104.5 POC
Avg POC (LKB1): 96.5 POC
Avg POC (SIK): 145 POC
Avg POC (ZAP-70): 133 POC
Avg POC (PKCiota): 67 POC
Avg POC (RIPK2): 98 POC
Avg POC (EphA3): 120 POC
Avg POC (SGK1): 139.5 POC
Avg POC (PKCepsilon): 102 POC
Avg POC (PKCeta): 103.5 POC
Avg POC (GRK6): 98.5 POC
Avg POC (IKKbeta): 112 POC
Avg POC (EphA4): 109 POC
Avg POC (BrSK1): 132.5 POC
